{"source": "patent US7425579B2", "about": "“Methods for inhibiting activity of polyamine transporters” (Universite Laval, priority 1998, dated 2008)", "key": {"[1]": {"test_system": "CHO-K1, Jurkat, L1210, MDA-MB-231, ZR-75-1 and MCF-7 cells", "assay": "Reversal of DFMO-induced cytostasis by exogenous spermidine in a variety of mammalian cell lines", "assay_type": "cell-based", "details": "50-100 μM BNSD-X", "protocol": "FIGS. 5A, 5B, 5C, 5D, 5E and 5F are graphs representing that a compound used in a method according to a preferred embodiment antagonizes rescue of DFMO-induced cytostasis by exogenous spermidine. In particular, CHO-K1 (A), Jurkat (B), L1210 (C), MDA-MB-231 (D), ZR-75-1 (E) and MCF-7 cells (F) were grown to near confluency or saturation (for 4 to 11 d according to the cell line considered) with the indicated concentrations of spermidine in medium containing 1 mM aminoguanidine, in the presence of DFMO (●), BNSD-X (□), DFMO plus BNSD-X (▪), or in the absence of either agent (∘), and total DNA content per culture was then determined. The optimal concentration of either DFMO (1 to 5 mM) or BNSD-X (50 or 100 μM) was used for the each cell line as determined in pilot experiments. Data are presented as the mean±SD for triplicate cultures from one out of at least three identical experiments for each cell line;\n(§1) To determine the ability of polyamine transport antagonists to potentiate DFMO-induced inhibition of cell proliferation in the presence of exogenous polyamines, cells were grown for the indicated period in growth medium supplemented with 1 mM aminoguanidine, and either DFMO (1 to 5 mM), the indicated transport inhibitor (50 or 100 μM), or the combination thereof, as well as increasing concentrations of spermidine (0.1 to 300 μM). Fresh medium was added every other day, and cell mass was determined at various time points during the period of exponential growth, or at the end of the experimental period. For the latter experiments, the FBS supplement was replaced with dextran-coated charcoal-treated FBS (5%, v/v) plus 0.5 μg/ml insulin in the case of T-47D, ZR-75-1 and MCF-7 cells (U.S. Pat. No. 6,083,496)."}, "CHO-MG cells": {"test_system": "CHO-MG cells", "assay": "Potentiation of DFMO-induced cytostasis in polyamine transport-deficient CHO-MG cells", "assay_type": "cell-based, Chinese hamster", "details": "2 mM DFMO; 4 d; polyamine transport mutant", "protocol": "FIGS. 9A and 9B are graphs showing that potentiation of DFMO-induced cytostasis by a compound used in a method according to a preferred embodiment of the invention requires a functional polyamine transport system. In particular, CHO-TOR cells (A) and their polyamine transport-deficient mutant subline CHO-MG (B) were grown in medium containing 1 mM aminoguanidine and the indicated concentration of spermidine, in the presence of 2 mM DFMO (●), BNSD-X (□), DFMO+BNSD-X (▪), or vehicle only (∘). Cells were harvested after 4 d for determination of total DNA/well. Data are presented as the mean±SD for triplicate cultures from one representative experiment;\nas §1, with “For the latter experiments, the FBS supplement was replaced with dextran-coated charcoal-treated FBS (5%, v/v) plus 0.5 μg/ml insulin in the case of T-47D, ZR-75-1 and MCF-7 cells (U.S. Pat. No. 6,083,496).” left out"}, "[2]": {"test_system": "MDA-MB-231 human breast cancer xenograft", "assay": "MDA-MB-231 human breast cancer xenograft in nude mice", "assay_type": "in vivo, immunodeficient CD-1 mice", "protocol": "(§2) In particular, the mice have been treated with the following compounds: BNSD-X (1% w/v) (●), 0.3 (w/v) DFMO (□), 0.3% DFMO+BNSD-X (▪), 1% (w/v) DFMO (Δ), or 1% DFMO+BNSD-X (▴). Drugs were dissolved in drinking water which was given ad libitum to the animals. Control mice (∘) received distilled water only;\nas §2, with “only; and” for “only;”\nIn particular, these compounds are BNSD-X (1% w/v), 0.3 (w/v) DFMO, 0.3% DFMO+BNSD-X, 1% (w/v) DFMO, or 1% DFMO+BNSD-X Drugs were dissolved in drinking water which was given ad libitum to the animals. Control mice received distilled water only.\nFor human xenograft experiments, athymic CD-1 mice were inoculated with 5×10^6 MDA-MB-231 human breast cancer cells (grown in tissue culture incubators to mid-exponential phase) in both sides of the inguinal mammary fat pad. After ˜2 weeks, when the tumor had reached a diameter ˜4 mm (as measured with a caliper), control mice were paired to treated ones in accordance with tumor volume (time zero). Animals were allowed free access to water containing 0, 0.3 or 1% DFMO (w/v), plus or minus 1% (w/v) BNSD-X (7 mice/experimental group). Tumor volume (V) was measured twice weekly with a caliper in 2 dimensions using the approximation V=(L×w^2)/2, where L is the length and w is the width of the xenograft (Bandyopadhyay et al., (2002) Cancer Res. 62:4690-4695). Animals were sacrificed after 39 d (i.e. when tumor size in control mice had reached about 500 mm^3). Mammary tumors were be excised and weighed.\nThe efficacy of BNSD-X as a chemotherapeutic agent was assessed in the MDA-MB-231 model of human breast cancer xenograft in the nude mouse, a model which is known to be sensitive to polyamine depletion by DFMO (Weeks et al., (2000) Exp Cell Res. 261:293-302). For that purpose, MDA-MB-231 cells were injected in the left and right mammary fat pads of immunodeficient CD-1 mice. Mice were then allowed to drink either BNSD-X at the optimal concentration (1%, w/v), as well as DFMO at either 0.3% or 1% (w/v) plus or minus 1% BNSD-X for 39 days before sacrificing the animals and measuring total final tumor mass (FIG. 12-14). The BNSD-X solution alone or with 0.3% DFMO led to a slight (˜7%) reduction of body weight, which was attenuated by the addition of 1% DFMO (FIG. 13) However, this effect of body weight could largely be accounted on the decreased tumor burden in the BNSD-X treated animals (FIG. 14). […]"}}, "data": [{"smiles": "NCCCN(CCCN)Cc1ccc(CN(CCCN)CCCN)cc1", "note": "[28a, N,N,N′,N′-tetrakis-(3-aminopropyl)-p-diaminoxylene]", "values": [{"measurement": "increase of the spermidine concentration required to fully restore cell proliferation upon treatment with DFMO", "setting": "[1]; DFMO 1 to 5 mM", "result": "10 to 100", "unit": "fold"}, {"measurement": "effect of the inhibitor alone on cell proliferation", "setting": "[1]; except L1210 and, to a lesser degree, MCF-7 cells", "result": "little or no effect"}, {"measurement": "potentiation of DFMO-induced cytostasis in the absence of exogenous spermidine, CHO-MG", "setting": "CHO-MG cells", "result": "not in the polyamine transport mutant"}, {"measurement": "reduction of body weight", "setting": "[2]; 1% (w/v) BNSD-X alone in drinking water", "result": "~7", "unit": "%"}, {"measurement": "decrease of total tumor mass", "setting": "[2]; 1% (w/v) BNSD-X as a single agent, 39-d treatment", "result": "65±10", "unit": "%"}]}]}
